Assays:
Type in all cases: in vivo
[1] = test system: rice (Oryza sativa); experiment: Test B flooded paddy test, visual plant response rating 0-100; settings: 250 g ai/ha, Flood, applied to paddy water, evaluated after 13 days
Outline: (§1)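 2-leaf plants; flood 3 cm over soil; compound dosed into paddy water; depth kept constant; greenhouse 13 d; visual scoring vs controls. Dash = no result.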

[2] = test system: ducksalad (Heteranthera limosa); experiment: as above; settings: 250 g ai/ha, Flood, applied to paddy water, evaluated after 13 days
Outline: as §1

[3] = test system: sedge, umbrella (small-flower umbrella sedge, Cyperus difformis); experiment: as above; settings: 250 g ai/ha, Flood, applied to paddy water, evaluated after 13 days
Outline: as §1

[4] = test system: barnyardgrass (Echinochloa crusgalli); experiment: as above; settings: 250 g ai/ha, Flood, applied to paddy water, evaluated after 13 days
Outline: as §1

[5] = test system: wheat (Triticum aestivum); experiment: Test A preemergence soil spray, visual injury rating 0-100; settings: 10 days
Outline: (§2)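 Preemergence directed soil spray or postemergence spray (2-10 cm, 1-2 leaf); loam/sand mix; compound in non-phytotoxic solvent + surfactant. Greenhouse, 10 d. Visual injury vs untreated, 0 = none, 100 = complete control.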

[6] = test system: corn (Zea mays); experiment: as above; settings: 10 days
Outline: as §2

[7] = test system: palmer (palmer amaranth, palmer pigweed, Amaranthus palmeri); experiment: as above; settings: 10 days
Outline: as §2

[8] = test system: oat, wild (wild oat, Avena fatua); experiment: as above; settings: 10 days
Outline: as §2

[9] = test system: soybean (Glycine max); experiment: as above; settings: 10 days
Outline: as §2

[10] = test system: ragweed (common ragweed, Ambrosia artemisiifolia); experiment: as above; settings: 10 days
Outline: as §2

[11] = test system: barnyardgrass (Echinochloa crus-galli); experiment: as above; settings: 10 days
Outline: as §2

[12] = test system: green foxtail (Setaria viridis); experiment: as above; settings: 10 days
Outline: as §2

[13] = test system: blackgrass (Alopecurus myosuroides); experiment: as above; settings: 10 days
Outline: as §2

[14] = test system: ryegrass, Italian (italian ryegrass, Lolium multiflorum); experiment: as above; settings: 10 days
Outline: as §2

[15] = test system: kochia (Bassia scoparia); experiment: as above; settings: 62 g ai/ha, 10 days, 0 = no effect, 100 = complete control
Outline: as §2

[16] = test system: wheat (Triticum aestivum); experiment: Test A postemergence application, visual injury rating 0-100
Outline: as §2

[17] = test system: corn (Zea mays); experiment: as above
Outline: as §2

[18] = test system: palmer (palmer amaranth, palmer pigweed, Amaranthus palmeri); experiment: as above
Outline: as §2

[19] = test system: oat, wild (wild oat, Avena fatua); experiment: as above
Outline: as §2

[20] = test system: soybean (Glycine max); experiment: as above
Outline: as §2

[21] = test system: ragweed (common ragweed, Ambrosia artemisiifolia); experiment: as above
Outline: as §2

[22] = test system: barnyardgrass (Echinochloa crus-galli); experiment: as above
Outline: as §2

[23] = test system: green foxtail (Setaria viridis); experiment: as above
Outline: as §2

[24] = test system: blackgrass (Alopecurus myosuroides); experiment: as above
Outline: as §2

[25] = test system: galium (catchweed bedstraw, Galium aparine); experiment: as above
Outline: as §2

[26] = test system: horseweed (Erigeron canadensis); experiment: as above
Outline: as §2

[27] = test system: ryegrass, Italian (italian ryegrass, Lolium multiflorum); experiment: as above
Outline: as §2

[28] = test system: kochia (Bassia scoparia); experiment: as above
Outline: as §2

[29] = 62 g ai/ha, 0 = no effect, 100 = complete control
[30] = 62 g ai/ha, postemergence, 10 days, 0 = no effect, 100 = complete control
[31] = Postemergence, 16 g ai/ha, greenhouse 10 days, 0 no effect, 100 complete control

With `COC(=O)C1=CCC(NC(=O)C2(C)CN(c3cc(Cl)c(F)c(Cl)c3)C(=O)O2)C1` (stereo not drawn) [Compound 129] the “Plant response rating, Rice (0 to 100 scale, 0 is no effect and 100 is complete control)” value [1] was 40, the “Plant response rating, Ducksalad (0 to 100 scale, 0 is no effect and 100 is complete control)” value [2] was 70 and the “Plant response rating, Sedge, Umbrella (0 to 100 scale, 0 is no effect and 100 is complete control)” value [3] was 90. For the same molecule, the “Plant response rating, Barnyardgrass (0 to 100 scale, 0 is no effect and 100 is complete control)” value [4] was 50, the “Wheat plant response rating” value ([5]; 16 g ai/ha, 0 to 100 scale) was 0 and the “Wheat plant response rating (0-100)” value [5, 29] was 20. The “Corn plant response rating” value ([6]; 16 g ai/ha, 0 to 100 scale) was 0, the “Corn plant response rating (0-100)” value [6, 29] was 30 and the “Pigweed, Palmer plant response rating” value ([7]; 16 g ai/ha, 0 to 100 scale) was 0. For the same molecule, the “Pigweed, Palmer plant response rating (0-100)” value [7, 29] was 20, the “Oat, Wild plant response rating” value ([8]; 16 g ai/ha, 0 to 100 scale) was 0 and the “Oat, Wild plant response rating (0-100)” value [8, 29] was 0. For the same molecule, the “Soybean plant response rating” value ([9]; 16 g ai/ha, 0 to 100 scale) was 0, the “Soybean plant response rating (0-100)” value [9, 29] was 0 and the “Ragweed plant response rating” value ([10]; 16 g ai/ha, 0 to 100 scale) was 0. The “Ragweed plant response rating (0-100)” value [10, 29] was 0, the “Barnyardgrass plant response rating” value ([11]; 16 g ai/ha, 0 to 100 scale) was 0 and the “Barnyardgrass plant response rating (0-100)” value [11, 29] was 30. For the same molecule, the “Foxtail, Green plant response rating” value ([12]; 16 g ai/ha, 0 to 100 scale) was 0, the “Foxtail, Green plant response rating (0-100)” value [12, 29] was 0 and the “Blackgrass plant response rating” value ([13]; 16 g ai/ha, 0 to 100 scale) was 0. For the same molecule, the “Blackgrass plant response rating (0-100)” value [13, 29] was 0, the “Ryegrass, Italian plant response rating” value ([14]; 16 g ai/ha, 0 to 100 scale) was 0 and the “Ryegrass, Italian plant response rating (0-100)” value [14, 29] was 40. For the same molecule, the “Kochia plant response rating (0-100)” value [15] was 0, the “Wheat plant response rating (0-100)” value [16, 30] was 80 and the “Wheat plant response rating (0 to 100 scale)” value [16, 31] was 10. For the same molecule, the “Corn plant response rating (0-100)” value [17, 30] was 100, the “Corn plant response rating (0 to 100 scale)” value [17, 31] was 70 and the “Pigweed, Palmer plant response rating (0-100)” value [18, 30] was 70. The “Pigweed, Palmer plant response rating (0 to 100 scale)” value [18, 31] was 50, the “Oat, Wild plant response rating (0-100)” value [19, 30] was 20 and the “Oat, Wild plant response rating (0 to 100 scale)” value [19, 31] was 10. For the same molecule, the “Soybean plant response rating (0-100)” value [20, 30] was 70, the “Soybean plant response rating (0 to 100 scale)” value [20, 31] was 20 and the “Ragweed plant response rating (0-100)” value [21, 30] was 30. The “Ragweed plant response rating (0 to 100 scale)” value [21, 31] was 0, the “Barnyardgrass plant response rating (0-100)” value [22, 30] was 100 and the “Barnyardgrass plant response rating (0 to 100 scale)” value [22, 31] was 80. The “Foxtail, Green plant response rating (0-100)” value [23, 30] was 90, the “Foxtail, Green plant response rating (0 to 100 scale)” value [23, 31] was 20 and the “Blackgrass plant response rating (0-100)” value [24, 30] was 40. For the same molecule, the “Blackgrass plant response rating (0 to 100 scale)” value [24, 31] was 20, the “Galium plant response rating (0-100)” value [25, 30] was 80 and the “Galium plant response rating (0 to 100 scale)” value [25, 31] was 70. For the same molecule, the “Horseweed plant response rating (0-100)” value [26, 30] was 60, the “Horseweed plant response rating (0 to 100 scale)” value [26, 31] was 0 and the “Ryegrass, Italian plant response rating (0-100)” value [27, 30] was 60. The “Ryegrass, Italian plant response rating (0 to 100 scale)” value [27, 31] was 30, the “Kochia plant response rating (0-100)” value [28, 30] was 80 and the “Kochia plant response rating (0 to 100 scale)” value [28, 31] was 50.

From patent US20260285850A1, “SUBSTITUTED OXAZOLIDINONES AND IMIDAZOLINONES AS HERBICIDES” (FMC CORPORATION, priority 2023, published 2026)
